Square brackets hold non-standard residues; d marks the D form. Peptide text beside a SMILES is read from it.
biological target: Programmed cell death protein 1/Programmed cell death 1 ligand 1 (Homo sapiens) (UniProt Q15116+Q9NZQ7); test: Inhibition of PD1-Tag2/PD-L1-Tag1 (unknown origin) protein-protein interaction at 20 uM preincubated for 15 mins followed by addition of anti-Tag1-Eu3+ and anti-Tag2-XL665 measured after 3 hrs by HTRF assay relative to control; type: protein-complex assay; conditions: time 195.0 min

SMILES	inhibition [%]
CC(C)C[C@@H]1NC(=O)[C@H](CCCNC(=N)N)NC(=O)[C@H](C(C)C)NC(=O)[C@@H]2CCCN2C(=O)[C@@H](Cc2ccccc2)NC(=O)[C@H](C)NC(=O)[C@H](CC(=O)O)NC(=O)[C@H]([C@@H](C)O)NC(=O)[C@@H]2CCCN2C(=O)[C@@H](Cc2ccccc2)NC1=O (cyclo(A[dF]PVRL[dF]PTD))	-5.69
CC(C)C[C@@H]1NC(=O)[C@H](CCCNC(=N)N)NC(=O)[C@H](C(C)C)NC(=O)[C@@H]2CCCN2C(=O)[C@@H](Cc2ccccc2)NC(=O)[C@H](CC(=O)O)NC(=O)[C@H](CC(C)C)NC(=O)[C@H]([C@@H](C)O)NC(=O)[C@@H]2CCCN2C(=O)[C@@H](Cc2ccccc2)NC1=O (cyclo(D[dF]PVRL[dF]PTL))	-5.92
CC(C)C[C@@H]1NC(=O)[C@H](CCCNC(=N)N)NC(=O)[C@H](C(C)C)NC(=O)[C@@H]2CCCN2C(=O)[C@@H](Cc2ccccc2)NC(=O)[C@H](Cc2cnc[nH]2)NC(=O)[C@H](CC(=O)O)NC(=O)[C@H]([C@@H](C)O)NC(=O)[C@@H]2CCCN2C(=O)[C@@H](Cc2ccccc2)NC1=O (cyclo(DH[dF]PVRL[dF]PT))	-8.61
CC(C)C[C@@H]1NC(=O)[C@H](CCCNC(=N)N)NC(=O)[C@H](C(C)C)NC(=O)[C@@H]2CCCN2C(=O)[C@@H](Cc2ccccc2)NC(=O)[C@H](C)NC(=O)[C@H](CCCNC(=N)N)NC(=O)[C@H](C(C)C)NC(=O)[C@@H]2CCCN2C(=O)[C@@H](Cc2ccccc2)NC1=O (cyclo(A[dF]PVRL[dF]PVR))	21
CC(C)C[C@@H]1NC(=O)[C@H](CC(=O)O)NC(=O)[C@H]([C@@H](C)O)NC(=O)[C@@H]2CCCN2C(=O)[C@@H](Cc2ccccc2)NC(=O)[C@H](Cc2cnc[nH]2)NC(=O)[C@H](CCCNC(=N)N)NC(=O)[C@H](C(C)C)NC(=O)[C@@H]2CCCN2C(=O)[C@@H](Cc2ccccc2)NC1=O (cyclo(DL[dF]PVRH[dF]PT))	7.13
CC(C)C[C@@H]1NC(=O)[C@H](CC(=O)O)NC(=O)[C@H]([C@@H](C)O)NC(=O)[C@@H]2CCCN2C(=O)[C@@H](Cc2ccccc2)NC(=O)[C@H](CC(C)C)NC(=O)[C@H](CCCCN)NC(=O)[C@H](C(C)C)NC(=O)[C@@H]2CCCN2C(=O)[C@@H](Cc2ccccc2)NC1=O (cyclo(DL[dF]PVKL[dF]PT))	3.52
CC(C)C[C@@H]1NC(=O)[C@H](Cc2ccc(O)cc2)NC(=O)[C@H]([C@@H](C)O)NC(=O)[C@@H]2CCCN2C(=O)[C@@H](Cc2ccccc2)NC(=O)[C@H](CC(C)C)NC(=O)[C@H](CCCNC(=N)N)NC(=O)[C@H](C(C)C)NC(=O)[C@@H]2CCCN2C(=O)[C@@H](Cc2ccccc2)NC1=O (cyclo(L[dF]PTYL[dF]PVR))	8.25
CC(C)C[C@@H]1NC(=O)[C@H](CC(=O)O)NC(=O)[C@H]([C@@H](C)O)NC(=O)[C@@H]2CCCN2C(=O)[C@@H](Cc2ccccc2)NC(=O)[C@H](CC(C)C)NC(=O)[C@H](Cc2cnc[nH]2)NC(=O)[C@H](C(C)C)NC(=O)[C@@H]2CCCN2C(=O)[C@@H](Cc2ccccc2)NC1=O (cyclo(DL[dF]PVHL[dF]PT))	6.8
CC(C)C[C@@H]1NC(=O)[C@H](CO)NC(=O)[C@H]([C@@H](C)O)NC(=O)[C@@H]2CCCN2C(=O)[C@@H](Cc2ccccc2)NC(=O)[C@H](CC(C)C)NC(=O)[C@H](CCCNC(=N)N)NC(=O)[C@H](C(C)C)NC(=O)[C@@H]2CCCN2C(=O)[C@@H](Cc2ccccc2)NC1=O (cyclo(L[dF]PTSL[dF]PVR))	29.7
CC(C)C[C@@H]1NC(=O)[C@H](CC(=O)O)NC(=O)[C@H]([C@@H](C)O)NC(=O)[C@@H]2CCCN2C(=O)[C@@H](Cc2ccccc2)NC(=O)[C@H](CC(C)C)NC(=O)[C@H](CCC(N)=O)NC(=O)[C@H](C(C)C)NC(=O)[C@@H]2CCCN2C(=O)[C@@H](Cc2ccccc2)NC1=O (cyclo(DL[dF]PVQL[dF]PT))	47.5
CC(C)C[C@@H]1NC(=O)[C@H](CCCNC(=N)N)NC(=O)[C@H](CC(=O)O)NC(=O)[C@H](C(C)C)NC(=O)[C@@H]2CCCN2C(=O)[C@@H](Cc2ccccc2)NC(=O)[C@H](CC(C)C)NC(=O)[C@H]([C@@H](C)O)NC(=O)[C@@H]2CCCN2C(=O)[C@@H](Cc2ccccc2)NC1=O (cyclo(DRL[dF]PTL[dF]PV))	-4.8
CC(C)C[C@@H]1NC(=O)[C@H](CC(=O)O)NC(=O)[C@H]([C@@H](C)O)NC(=O)[C@@H]2CCCN2C(=O)[C@@H](Cc2ccccc2)NC(=O)[C@H](CC(C)C)NC(=O)[C@H](CCCNC(=N)N)NC(=O)[C@H](C(C)C)NC(=O)[C@@H]2CCCN2C(=O)[C@@H](Cc2ccc(O)cc2)NC1=O (cyclo(DL[dY]PVRL[dF]PT))	18.7
CC(C)C[C@@H]1NC(=O)[C@H](CCCNC(=N)N)NC(=O)[C@H](C(C)C)NC(=O)[C@@H]2CCCN2C(=O)[C@@H](Cc2ccccc2)NC(=O)[C@H](C)NC(=O)[C@H](CC(=O)O)NC(=O)[C@H](C(C)C)NC(=O)[C@@H]2CCCN2C(=O)[C@@H](Cc2ccccc2)NC1=O (cyclo(A[dF]PVRL[dF]PVD))	21.7
CC(C)C[C@@H]1NC(=O)[C@H](C)NC(=O)[C@H](C(C)C)NC(=O)[C@@H]2CCCN2C(=O)[C@@H](Cc2ccccc2)NC(=O)[C@H](CC(C)C)NC(=O)[C@H](CCCNC(=N)N)NC(=O)[C@H](C(C)C)NC(=O)[C@@H]2CCCN2C(=O)[C@@H](Cc2ccccc2)NC1=O (cyclo(AL[dF]PVRL[dF]PV))	28.8
CC(C)C[C@@H]1NC(=O)[C@H](CC(N)=O)NC(=O)[C@H]([C@@H](C)O)NC(=O)[C@@H]2CCCN2C(=O)[C@@H](Cc2ccccc2)NC(=O)[C@H](CC(C)C)NC(=O)[C@H](CCCNC(=N)N)NC(=O)[C@H](C(C)C)NC(=O)[C@@H]2CCCN2C(=O)[C@@H](Cc2ccccc2)NC1=O (cyclo(L[dF]PTNL[dF]PVR))	17
CC(C)C[C@@H]1NC(=O)[C@H](CC(=O)O)NC(=O)[C@H]([C@@H](C)O)NC(=O)[C@@H]2CCCN2C(=O)[C@@H](Cc2ccccc2)NC(=O)[C@H](CC(C)C)NC(=O)[C@H](CC(N)=O)NC(=O)[C@H](C(C)C)NC(=O)[C@@H]2CCCN2C(=O)[C@@H](Cc2ccccc2)NC1=O (cyclo(DL[dF]PVNL[dF]PT))	16.6
CC(NCCCC[C@@H]1NC(=O)[C@@H](Cc2ccccc2)NC(=O)[C@H](CC(C)C)NC(=O)[C@H](CC(=O)O)NC(=O)[C@H]([C@@H](C)O)NC(=O)[C@@H]2CCCN2C(=O)[C@@H](Cc2c[nH]c3ccccc23)NC(=O)[C@H](CC(C)C)NC(=O)[C@H](CCCNC(=N)N)NC(=O)[C@H](C(C)C)N(C)C1=O)=C1C(=O)CC(C)(C)CC1=O	29.1
CC(C)C[C@@H]1NC(=O)[C@H](CCCNC(=N)N)NC(=O)[C@H]([C@@H](C)O)NC(=O)[C@@H]2CCCN2C(=O)[C@@H](Cc2ccccc2)NC(=O)[C@H](CC(C)C)NC(=O)[C@H](CCCNC(=N)N)NC(=O)[C@H](C(C)C)NC(=O)[C@@H]2CCCN2C(=O)[C@@H](Cc2ccccc2)NC1=O (cyclo(L[dF]PTRL[dF]PVR))	16.9
CC(NCCCC[C@@H]1NC(=O)[C@@H](Cc2ccccc2)NC(=O)[C@H](CC(C)C)NC(=O)[C@H](CC(=O)O)NC(=O)[C@H](C(C)C)NC(=O)[C@@H]2CCCN2C(=O)[C@@H](Cc2c[nH]c3ccccc23)NC(=O)[C@H](CC(C)C)NC(=O)[C@H](CCCNC(=N)N)NC(=O)[C@H](C(C)C)NC1=O)=C1C(=O)CC(C)(C)CC1=O	3.86
CC(NCCCC[C@@H]1NC(=O)[C@@H](Cc2ccccc2)NC(=O)[C@H](CC(C)C)NC(=O)[C@H](CC(=O)O)NC(=O)[C@H]([C@@H](C)O)NC(=O)[C@@H]2CCCN2C(=O)[C@@H](Cc2c[nH]c3ccccc23)NC(=O)[C@H](CC(C)C)N(C)C(=O)[C@H](CCCNC(=N)N)NC(=O)[C@H](C(C)C)NC1=O)=C1C(=O)CC(C)(C)CC1=O	16.1
CC(NCCCC[C@@H]1NC(=O)[C@@H]2CCCN2C(=O)[C@@H](Cc2ccccc2)NC(=O)[C@H](CC(C)C)NC(=O)[C@H](CC(=O)O)NC(=O)[C@H]([C@@H](C)O)NC(=O)[C@@H]2CCCN2C(=O)[C@@H](Cc2c[nH]c3ccccc23)NC(=O)[C@H](CC(C)C)NC(=O)[C@H](CCCNC(=N)N)NC1=O)=C1C(=O)CC(C)(C)CC1=O	13.1
CC(C)C[C@@H]1NC(=O)[C@H](CC(=O)O)NC(=O)[C@H]([C@@H](C)O)NC(=O)[C@@H]2CCCN2C(=O)[C@@H](Cc2ccccc2)NC(=O)[C@H](CC(N)=O)NC(=O)[C@H](CCCNC(=N)N)NC(=O)[C@H](C(C)C)NC(=O)[C@@H]2CCCN2C(=O)[C@@H](Cc2ccccc2)NC1=O (cyclo(DL[dF]PVRN[dF]PT))	17.4
CC(C)C[C@@H]1NC(=O)[C@H](CCCNC(=N)N)NC(=O)[C@H](C(C)C)NC(=O)[C@@H]2CCCN2C(=O)[C@@H](Cc2ccccc2)NC(=O)[C@H](CC(C)C)NC(=O)[C@H](CC(=O)O)NC(=O)[C@H](CCC(=O)O)NC(=O)[C@@H]2CCCN2C(=O)[C@@H](Cc2ccccc2)NC1=O	1.14
CC(C)C[C@@H]1NC(=O)[C@H](CC(=O)O)NC(=O)[C@H](CCCNC(=N)N)NC(=O)[C@H](C(C)C)NC(=O)[C@@H]2CCCN2C(=O)[C@@H](Cc2ccccc2)NC(=O)[C@H](CC(C)C)NC(=O)[C@H]([C@@H](C)O)NC(=O)[C@@H]2CCCN2C(=O)[C@@H](Cc2ccccc2)NC1=O (cyclo(DL[dF]PTL[dF]PVR))	-7.34
CC(C)C[C@@H]1NC(=O)[C@H](CC(=O)O)NC(=O)[C@H](C(C)C)NC(=O)[C@@H]2CCCN2C(=O)[C@@H](Cc2ccccc2)NC(=O)[C@H](CC(C)C)NC(=O)[C@H](CCCNC(=N)N)NC(=O)[C@H](CCC(=O)O)NC(=O)[C@@H]2CCCN2C(=O)[C@@H](Cc2ccccc2)NC1=O	-3.03
CC(C)C[C@@H]1NC(=O)[C@H](CCC(=O)O)NC(=O)[C@H]([C@@H](C)O)NC(=O)[C@@H]2CCCN2C(=O)[C@@H](Cc2ccccc2)NC(=O)[C@H](CC(C)C)NC(=O)[C@H](CCCNC(=N)N)NC(=O)C(C(C)C)NC(=O)[C@@H]2CCCN2C(=O)[C@@H](Cc2ccccc2)NC1=O (some centres not stated)	20.6
CC(C)C[C@@H]1NC(=O)[C@H](CC(=O)O)NC(=O)[C@H](C(C)C)NC(=O)[C@@H]2CCCN2C(=O)[C@@H](Cc2ccccc2)NC(=O)[C@H](C)NC(=O)[C@H](CCCNC(=N)N)NC(=O)[C@H](C)NC(=O)[C@@H]2CCCN2C(=O)[C@@H](Cc2ccccc2)NC1=O (cyclo(ARA[dF]PVDL[dF]P))	33.7

— ChEMBL document CHEMBL4665770, “Design and Discovery of Natural Cyclopeptide Skeleton Based Programmed Death Ligand 1 Inhibitor as Immune Modulator for Cancer Therapy” (J Med Chem, 2020)
